For 1 molecule, EC50 and Emax results are on record in patent US20230265151A1, “GIP/GLP1 CO-AGONIST COMPOUNDS” (priority 2020, published 2023).

SMILES strings stand for the structures. Like-named read-outs stand apart in the source and are kept apart here. Where only a bound is given, the exact number is not on record here.

Common to all, as to type: cell-based
One assay deals with hGLP-1R (Homo sapiens, UniProt P43220). In words: Functional cAMP formation (HTRF) in HEK-293 clonal cells expressing hGLP-1R, 0.1% bovine casein, without or with 1.0% human serum albumin. The arrangement: expressed in transfected cells. Conditions: hGLP-1R EC50, nM (SEM, n), cAMP, 37° C., 0.1% bovine casein (no human serum albumin); geometric mean. In outline: (§1)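 Cells were stimulated with peptide for 30 min at 37° C, then intracellular cAMP was measured by competitive HTRF (665/620 nm ratio) and converted to nM using a cAMP standard curve. Relative EC50 and Emax came from four-parameter logistic fits of percent maximal response against peptide concentration.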
Chain of hGLP-1R (P43220 24-463): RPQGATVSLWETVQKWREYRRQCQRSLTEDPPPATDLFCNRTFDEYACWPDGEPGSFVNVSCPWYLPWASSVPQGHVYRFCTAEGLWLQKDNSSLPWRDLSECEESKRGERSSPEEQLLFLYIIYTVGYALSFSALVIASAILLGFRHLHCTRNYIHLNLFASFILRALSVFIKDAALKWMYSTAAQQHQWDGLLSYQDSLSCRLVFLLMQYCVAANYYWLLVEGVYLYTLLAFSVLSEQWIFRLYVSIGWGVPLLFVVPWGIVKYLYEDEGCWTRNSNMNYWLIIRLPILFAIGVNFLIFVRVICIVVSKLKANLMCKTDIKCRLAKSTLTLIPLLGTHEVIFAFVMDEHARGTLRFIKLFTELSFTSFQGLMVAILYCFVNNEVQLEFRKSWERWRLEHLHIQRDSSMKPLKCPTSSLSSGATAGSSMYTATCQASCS
On the technique in general: Changes in cAMP serve as a functional read-out for many G protein-coupled receptors.

In a further assay the target is T1, hGIPR (Homo sapiens, UniProt P48546).
T1 construct: expressed in transfected cells
T1 sequence (P48546 22-466): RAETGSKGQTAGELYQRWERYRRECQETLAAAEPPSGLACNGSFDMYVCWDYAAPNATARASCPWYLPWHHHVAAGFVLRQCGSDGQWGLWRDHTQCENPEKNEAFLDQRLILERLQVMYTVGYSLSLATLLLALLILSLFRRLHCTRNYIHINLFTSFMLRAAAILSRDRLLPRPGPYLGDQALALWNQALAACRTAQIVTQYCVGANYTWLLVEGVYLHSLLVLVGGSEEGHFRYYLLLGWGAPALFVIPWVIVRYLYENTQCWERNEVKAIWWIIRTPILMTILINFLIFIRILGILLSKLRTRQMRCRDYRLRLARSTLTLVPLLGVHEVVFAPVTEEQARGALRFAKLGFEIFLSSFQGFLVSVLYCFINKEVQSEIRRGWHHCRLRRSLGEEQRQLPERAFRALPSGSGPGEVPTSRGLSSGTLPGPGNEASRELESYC
In words: Functional cAMP formation (HTRF) in HEK-293 clonal cells expressing hGIPR, 0.1% bovine casein, without or with 1.0% human serum albumin. The following applies: percent of maximal response to GIP(1-42)NH2. In outline:
as §1

The target of another assay is T2, hGCGR (Homo sapiens, UniProt P47871).
T2 construct: expressed in transfected cells
T2 sequence (P47871 26-477): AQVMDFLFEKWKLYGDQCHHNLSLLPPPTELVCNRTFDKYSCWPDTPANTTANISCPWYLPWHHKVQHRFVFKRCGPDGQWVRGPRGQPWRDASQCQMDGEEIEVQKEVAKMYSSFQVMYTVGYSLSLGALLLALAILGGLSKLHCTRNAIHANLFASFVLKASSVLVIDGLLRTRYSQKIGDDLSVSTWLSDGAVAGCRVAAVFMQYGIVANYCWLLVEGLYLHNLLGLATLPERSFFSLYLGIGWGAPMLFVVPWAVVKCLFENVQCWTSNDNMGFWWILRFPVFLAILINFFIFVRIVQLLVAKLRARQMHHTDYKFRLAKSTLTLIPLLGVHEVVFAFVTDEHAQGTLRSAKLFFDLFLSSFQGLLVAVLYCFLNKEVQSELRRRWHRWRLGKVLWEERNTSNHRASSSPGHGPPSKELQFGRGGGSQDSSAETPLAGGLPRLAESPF
The assay is described as follows: Functional cAMP formation (HTRF) in HEK-293 clonal cells expressing hGCGR, 0.1% bovine casein, without or with 1.0% human serum albumin. The following applies: hGCGR EC50, nM (SEM, n), 37° C., geometric mean. In outline:
as §1

Usually EC50 stands for the concentration needed to bring the measured effect to its halfway point. High values mean weaker potency, low ones greater potency. Usually Emax stands for the greatest response seen or fitted, relative to the assay's reference. Take `CC[C@H](C)[C@H](NC(=O)[C@H](CC(C)C)NC(=O)[C@](C)(Cc1ccc(O)cc1)NC(=O)[C@@H](CCC(=O)O)NC(=O)[C@@H](NC(=O)[C@H](Cc1ccccc1)NC(=O)[C@H](CCCCNC(=O)COCCOCCNC(=O)COCCOCCNC(=O)CC[C@H](NC(=O)CCCCCCCCCOc1ccc(C(=O)O)cc1)C(=O)O)NC(=O)C(C)(C)NC(=O)[C@H](CCC(N)=O)NC(=O)[C@H](C)NC(=O)[C@H](CCCCNC(=O)COCCOCCNC(=O)COCCOCCNC(=O)CC[C@H](NC(=O)CCCCCCCCCOc1ccc(C(=O)O)cc1)C(=O)O)NC(=O)[C@H](CCCN)NC(=O)[C@H](CC(=O)O)NC(=O)[C@H](CC(C)C)NC(=O)[C@](C)(CC(C)C)NC(=O)[C@@H](NC(=O)[C@H](CO)NC(=O)[C@H](CCc1ccc(O)cc1)NC(=O)[C@H](CC(=O)O)NC(=O)[C@H](CO)NC(=O)[C@@H](NC(=O)[C@](C)(Cc1ccccc1F)NC(=O)[C@@H](NC(=O)CNC(=O)[C@H](CCC(=O)O)NC(=O)C(C)(C)NC(=O)[C@@H](N)Cc1ccc(O)cc1)[C@@H](C)O)[C@@H](C)O)[C@@H](C)CC)[C@@H](C)CC)C(=O)N[C@@H](CCC(=O)O)C(=O)NCC(=O)NCC(=O)N1CCC[C@H]1C(=O)N[C@@H](CO)C(=O)N[C@@H](CO)C(=O)NCC(=O)N[C@@H](C)C(=O)N1CCC[C@H]1C(=O)N1CCC[C@H]1C(=O)N1CCC[C@H]1C(=O)N[C@@H](CO)C(N)=O` [Example 320]: the EC50 is 0.246 nM on hGLP-1R; above 9950 nM on hGCGR (0.1% bovine casein and 1.0% human serum albumin); above 9950 nM on hGCGR (cAMP, 0.1% bovine casein (no human serum albumin)). Further, the Emax at hGIPR (HEK293, read-out: hGIPR Emax, % ± SEM, 0.1% bovine casein and 1.0% human serum albumin, 37° C.) was 84.1%; on hGIPR (HEK293, read-out: hGIPR Emax, % ± SEM, cAMP, 37° C., 0.1% bovine casein, arithmetic mean), 94.2%.
